From patent US20240391862A1, “(1,4,5-TRISUBSTITUTED-1H-PYRAZOL-3-YL)OXY-2-ALKOXY ALKYL ACIDS AND THEIR DERIVATIVES, THEIR SALTS AND THEIR USE AS HERBICIDAL AGENTS” (Bayer AKtiengesellschaft, priority 2021, published 2024)

What was measured:
[1] = tested on: ABUTH; test: Post-emergence herbicidal effect, greenhouse pot test; assay type: in vivo, Abutilon theophrasti; details: visual rating about 3 weeks after treatment
Description: (§1) • ALOMY: Alopecurus myosuroides SETVI: Setaria viridis • AVEFA: Avena fatua POLCO: Fallopia convolvulus • AMARE: Amaranthus retroflexus ECHCG: Echinochloa crus-galli • LOLRJ: Lolium rigidum STEME: Stellaria media • VERPE: Veronica persica MATIN: Tripleurospermum inodorum • DIGSA: Digitaria sanguinalis ABUTH: Abutylon threophrasti • TRZAS: Triticum aestivum VIOTR: Viola tricolor • BRSNW: Brassica napus ZEAMX: Zea mays • PHBPU: Ipomoea purpurea GLXMA: Glycine max • ORYSA: Oryza sativa HORMU: Hordeum murinum
(§2) Seeds of monocotyledonous and dicotyledonous weeds and crop plants are placed in sandy loam in plastic or organic planting pots, covered with soil and cultivated in a greenhouse under controlled growth conditions. 2 to 3 weeks after sowing, the trial plants are treated at the one-leaf stage. The compounds of the invention, formulated in the form of wettable powders (WP) or as emulsion concentrates (EC), are then sprayed onto the green parts of the plants as aqueous suspension or emulsion with addition of 0.5% additive at a water application rate of 600 l/ha (converted). After the test plants have been kept in the greenhouse under optimum growth conditions for about 3 weeks, the activity of the preparations is rated visually in comparison to untreated controls. For example, 100% activity=the plants have died, 0% activity=like control plants.
(§3) Tables 20a to 38c below show the effects/crop compatibilities of selected compounds of the general formula (I) on various harmful plants at an application rate corresponding to 20 to 320 g/ha, which were obtained by the trial procedure specified above.

[2] = tested on: ALOMY; test: as above; assay type: in vivo, Alopecurus myosuroides; details: 320 g/ha, visual rating about 3 weeks after treatment
Description: as §1, §2, §3

[3] = tested on: AVEFA; test: as above; assay type: in vivo, Avena fatua; details: visual rating about 3 weeks after treatment
Description: as §1, §2, §3

[4] = tested on: DIGSA; test: as above; assay type: in vivo, Digitaria sanguinalis; details: visual rating about 3 weeks after treatment
Description: as §1, §2, §3

[5] = tested on: ECHCG; test: as above; assay type: in vivo, Echinochloa crus-galli
Description: as §1, §2, §3

[6] = tested on: MATIN; test: as above; assay type: in vivo, Tripleurospermum inodorum
Description: as §1, §2, §3

[7] = tested on: PHBPU; test: as above; assay type: in vivo, Ipomoea purpurea
Description: as §1, §2, §3

[8] = tested on: POLCO; test: as above; assay type: in vivo, Fallopia convolvulus
Description: as §1, §2, §3

[9] = tested on: SETVI; test: as above; assay type: in vivo, Setaria viridis
Description: as §1, §2, §3

[10] = tested on: VERPE; test: as above; assay type: in vivo, Veronica persica
Description: as §1, §2, §3

[11] = tested on: VIOTR; test: as above; assay type: in vivo, Viola tricolor
Description: as §1, §2, §3

[12] = tested on: KCHSC; test: as above; assay type: in vivo
Protocol: as §2, with “plants. Tables 20a to 38c below show the effects/crop compatibilities of selected compounds of the general formula (I) on various harmful plants at an application rate corresponding to 20 to 320 g/ha, which were obtained by the trial procedure specified above.” for “plants.”

[13] = tested on: ZEAMX; test: Post-emergence herbicidal effect and crop plant compatibility, greenhouse pot test; assay type: in vivo, Zea mays; details: 20 g/ha, one-leaf stage, rated visually after about 3 weeks vs untreated controls
Description: as §1, §2, §3

[14] = tested on: AMARE; test: Post-emergence herbicidal effect, greenhouse pot test; assay type: in vivo, Amaranthus retroflexus; details: 320 g/ha, visual rating about 3 weeks after treatment
Description: as §1, §2, §3

CCOC(Oc1nn(-c2ccccc2F)c(-c2ccc(F)nc2)c1Br)C(=O)OCCC(=O)OC (single isomer, unassigned) [Example I-63, Methyl 3-{[(2R*)-2-{[4-bromo-1-(2-fluorophenyl)-5-(6-fluoropyridin-3-yl)-1H-pyrazol-3-yl]oxy}-2-ethoxyethanoyl]oxy}propanoate]
80%: pest or weed control at 80 g/ha ([3]; Avena fatua, 504 h, 80 g/ha, read-out: Post-emergence effect against AVEFA) | pest or weed control at 80 g/ha ([6]; Tripleurospermum inodorum, 504 h, 80 g/ha, read-out: Post-emergence effect against MATIN in %) | pest or weed control at 320 g/ha ([6]; Tripleurospermum inodorum, 504 h, 320 g/ha, read-out: Post-emergence effect against MATIN in %) | pest or weed control at 20 g/ha ([7]; Ipomoea purpurea, 504 h, 20 g/ha, read-out: Post-emergence effect against PHBPU in %) | pest or weed control at 80 g/ha ([8]; Fallopia convolvulus, 504 h, 80 g/ha, read-out: Post-emergence effect against POLCO in %) | pest or weed control at 80 g/ha ([10]; Veronica persica, 504 h, 80 g/ha, read-out: Post-emergence effect against VERPE in %) | pest or weed control at 320 g/ha ([10]; Veronica persica, 504 h, 320 g/ha, read-out: Post-emergence effect against VERPE in %) | pest or weed control at 80 g/ha ([11]; Viola tricolor, 504 h, 80 g/ha, read-out: Post-emergence effect against VIOTR in %)
90%: pest or weed control at 80 g/ha ([1]; Abutilon theophrasti, 504 h, 80 g/ha, read-out: Post-emergence effect against ABUTH) | pest or weed control at 320 g/ha ([1]; Abutilon theophrasti, 504 h, 320 g/ha, read-out: Post-emergence effect against ABUTH) | pest or weed control at 320 g/ha ([2]; Alopecurus myosuroides, 504 h, read-out: Post-emergence effect against ALOMY) | pest or weed control at 320 g/ha ([3]; Avena fatua, 504 h, 320 g/ha, read-out: Post-emergence effect against AVEFA) | pest or weed control at 80 g/ha ([4]; Digitaria sanguinalis, 504 h, 80 g/ha, read-out: Post-emergence effect against DIGSA) | pest or weed control at 320 g/ha ([4]; Digitaria sanguinalis, 504 h, 320 g/ha, read-out: Post-emergence effect against DIGSA) | pest or weed control at 20 g/ha ([5]; Echinochloa crus-galli, 504 h, 20 g/ha, visual rating about 3 weeks after treatment, read-out: Post-emergence effect against ECHCG) | pest or weed control at 80 g/ha ([5]; Echinochloa crus-galli, 504 h, 80 g/ha, read-out: Post-emergence effect against ECHCG in %) | pest or weed control at 320 g/ha ([5]; Echinochloa crus-galli, 504 h, 320 g/ha, read-out: Post-emergence effect against ECHCG in %) | pest or weed control at 80 g/ha ([7]; Ipomoea purpurea, 504 h, 80 g/ha, read-out: Post-emergence effect against PHBPU in %) | pest or weed control at 320 g/ha ([7]; Ipomoea purpurea, 504 h, 320 g/ha, read-out: Post-emergence effect against PHBPU in %) | pest or weed control at 320 g/ha ([8]; Fallopia convolvulus, 504 h, 320 g/ha, read-out: Post-emergence effect against POLCO in %) | pest or weed control at 80 g/ha ([9]; Setaria viridis, 504 h, 80 g/ha, read-out: Post-emergence effect against SETVI in %) | pest or weed control at 320 g/ha ([9]; Setaria viridis, 504 h, 320 g/ha, read-out: Post-emergence effect against SETVI in %) | pest or weed control at 320 g/ha ([11]; Viola tricolor, 504 h, 320 g/ha, read-out: Post-emergence effect against VIOTR in %) | pest or weed control at 320 g/ha ([12]; 504 h, 320 g/ha, read-out: Post-emergence effect against KCHSC in %)

COC(=O)CCOC(=O)C(OC)Oc1nn(-c2ncccc2F)c(-c2ccc(F)nc2)c1C1CC1 (single isomer, unassigned) [Example I-80]
90%: Post-emergence effect against ALOMY [2] | Post-emergence effect against AVEFA ([3]; 320 g/ha) | Post-emergence effect against DIGSA ([4]; 320 g/ha) | Post-emergence effect against ECHCG ([5]; 20 g/ha, visual rating about 3 weeks after treatment) | Post-emergence effect against ECHCG in % ([5]; 80 g/ha) | Post-emergence effect against ECHCG in % ([5]; 320 g/ha) | Post-emergence effect against PHBPU in % ([7]; 80 g/ha) | Post-emergence effect against PHBPU in % ([7]; 320 g/ha) | Post-emergence effect against POLCO in % ([8]; 320 g/ha) | Post-emergence effect against SETVI in % ([9]; 80 g/ha) | Post-emergence effect against SETVI in % ([9]; 320 g/ha) | Post-emergence effect against VERPE in % ([10]; 320 g/ha) | Post-emergence effect against VIOTR in % ([11]; 320 g/ha) | Post-emergence effect against KCHSC in % ([12]; 20 g/ha) | Post-emergence effect against KCHSC in % ([12]; 80 g/ha) | Post-emergence effect against KCHSC in % ([12]; 320 g/ha)
20%: Post-emergence effect at 20 g/ha against ZEAMX in % [13]
80%: Post-emergence effect against ABUTH ([1]; 80 g/ha) | Post-emergence effect against ABUTH ([1]; 320 g/ha) | Post-emergence effect against AMARE [14] | Post-emergence effect against DIGSA ([4]; 80 g/ha) | Post-emergence effect against VERPE in % ([10]; 80 g/ha) | Post-emergence effect against VIOTR in % ([11]; 80 g/ha)

COC(=O)CCOC(=O)C(OC)Oc1nn(-c2ccccc2F)c(-c2ccc(F)nc2)c1C(F)(F)F (centres unmarked) [Example I-62]
80%: Post-emergence effect against ABUTH ([1]; 80 g/ha) | Post-emergence effect against MATIN in % ([6]; 80 g/ha) | Post-emergence effect against MATIN in % ([6]; 320 g/ha) | Post-emergence effect against POLCO in % ([8]; 80 g/ha) | Post-emergence effect against POLCO in % ([8]; 320 g/ha) | Post-emergence effect against VERPE in % ([10]; 80 g/ha) | Post-emergence effect against VERPE in % ([10]; 320 g/ha) | Post-emergence effect against KCHSC in % ([12]; 20 g/ha)
90%: Post-emergence effect against ABUTH ([1]; 320 g/ha) | Post-emergence effect against ALOMY [2] | Post-emergence effect against AVEFA ([3]; 80 g/ha) | Post-emergence effect against AVEFA ([3]; 320 g/ha) | Post-emergence effect against DIGSA ([4]; 80 g/ha) | Post-emergence effect against DIGSA ([4]; 320 g/ha) | Post-emergence effect against ECHCG in % ([5]; 80 g/ha) | Post-emergence effect against ECHCG in % ([5]; 320 g/ha) | Post-emergence effect against PHBPU in % ([7]; 20 g/ha) | Post-emergence effect against PHBPU in % ([7]; 80 g/ha) | Post-emergence effect against PHBPU in % ([7]; 320 g/ha) | Post-emergence effect against SETVI in % ([9]; 80 g/ha) | Post-emergence effect against SETVI in % ([9]; 320 g/ha) | Post-emergence effect against VIOTR in % ([11]; 80 g/ha) | Post-emergence effect against VIOTR in % ([11]; 320 g/ha) | Post-emergence effect against KCHSC in % ([12]; 80 g/ha) | Post-emergence effect against KCHSC in % ([12]; 320 g/ha)
0%: Post-emergence effect at 20 g/ha against ZEAMX in % [13]

COC(=O)CCOC(=O)C(OC)Oc1nn(-c2ccccc2F)c(-c2ccc(F)nc2)c1C1CC1 (centres unmarked) [Example I-61]
90%: Post-emergence effect against ALOMY [2] | Post-emergence effect against AVEFA ([3]; 320 g/ha) | Post-emergence effect against DIGSA ([4]; 320 g/ha) | Post-emergence effect against ECHCG in % ([5]; 80 g/ha) | Post-emergence effect against ECHCG in % ([5]; 320 g/ha) | Post-emergence effect against PHBPU in % ([7]; 80 g/ha) | Post-emergence effect against PHBPU in % ([7]; 320 g/ha) | Post-emergence effect against SETVI in % ([9]; 80 g/ha) | Post-emergence effect against SETVI in % ([9]; 320 g/ha) | Post-emergence effect against VIOTR in % ([11]; 80 g/ha) | Post-emergence effect against VIOTR in % ([11]; 320 g/ha) | Post-emergence effect against KCHSC in % ([12]; 320 g/ha)
80%: Post-emergence effect against ABUTH ([1]; 80 g/ha) | Post-emergence effect against ABUTH ([1]; 320 g/ha) | Post-emergence effect against AVEFA ([3]; 80 g/ha) | Post-emergence effect against DIGSA ([4]; 80 g/ha) | Post-emergence effect against MATIN in % ([6]; 80 g/ha) | Post-emergence effect against MATIN in % ([6]; 320 g/ha) | Post-emergence effect against POLCO in % ([8]; 80 g/ha) | Post-emergence effect against POLCO in % ([8]; 320 g/ha) | Post-emergence effect against VERPE in % ([10]; 80 g/ha) | Post-emergence effect against VERPE in % ([10]; 320 g/ha) | Post-emergence effect against VIOTR in % ([11]; 20 g/ha) | Post-emergence effect against KCHSC in % ([12]; 80 g/ha)
0%: Post-emergence effect at 20 g/ha against ZEAMX in % [13]
